These results are taken from patent US20250099421A1 (priority 2023, published 2025).

Series [1] relates to rat monosodium iodoacetate model of knee osteoarthritis. The note with it: in vivo.
For series [2] the following is noted: cited from earlier work.

On to `COc1cc(CNC(=O)CCCC/C=C/C(C)C)ccc1O` [CAP, capsaicin], for which the “weight bearing asymmetry at acute time points on Day 14 versus vehicle” value in series [1] is reported as “increased weight bearing asymmetry”.

Turning to `C=C(C)[C@]12C[C@@H](C)[C@@]34O[C@](Cc5ccccc5)(O[C@@H]1[C@@H]3C=C(COC(=O)Cc1ccc(O)c(OC)c1)C[C@]1(O)C(=O)C(C)=C[C@@H]41)O2` [RTX, resiniferatoxin], in series [1], the “weight bearing asymmetry at acute time points on Day 14 versus vehicle” value is given as “increased weight bearing asymmetry”.

Turning to hyaluronic acid [HA], in series [2], the half-life in-vivo result is listed as “hours-days”.
